Where two headings read alike, the source gives them in different places.
Key:
Assay in all cases: TGFα-shedding assay-based GPCR screening with chimeric Gα subunit proteins
Format in all cases: cell-based
348 GPCRs [1] = target: T1, 348 GPCRs (Homo sapiens, UniProt O95838); conditions: 10µM, Favipiravir 100μM
T1 construct: expressed in transfected cells; host or cells: HEK293A
T1 sequence (O95838 1-553): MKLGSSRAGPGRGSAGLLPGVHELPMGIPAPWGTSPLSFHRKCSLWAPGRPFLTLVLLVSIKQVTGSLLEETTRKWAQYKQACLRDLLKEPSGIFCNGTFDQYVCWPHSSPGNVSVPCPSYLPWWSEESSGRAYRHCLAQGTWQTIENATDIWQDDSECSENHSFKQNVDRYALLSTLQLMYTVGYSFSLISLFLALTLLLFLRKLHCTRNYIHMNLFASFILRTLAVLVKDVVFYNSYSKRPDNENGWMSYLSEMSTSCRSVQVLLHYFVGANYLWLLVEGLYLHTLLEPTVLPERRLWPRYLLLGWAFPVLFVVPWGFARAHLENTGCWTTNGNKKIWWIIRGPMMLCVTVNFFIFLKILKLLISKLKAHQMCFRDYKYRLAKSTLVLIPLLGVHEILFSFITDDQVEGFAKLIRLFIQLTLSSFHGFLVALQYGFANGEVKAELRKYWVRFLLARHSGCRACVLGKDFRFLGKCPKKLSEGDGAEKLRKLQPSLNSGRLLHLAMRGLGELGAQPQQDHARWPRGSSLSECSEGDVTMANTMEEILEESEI

348 GPCRs [2] = target: T2, 348 GPCRs (Homo sapiens, UniProt Q99679); conditions: 10µM, Favipiravir 100μM
T2 construct: expressed in transfected cells; host or cells: HEK293A
T2 sequence (Q99679 whole entry): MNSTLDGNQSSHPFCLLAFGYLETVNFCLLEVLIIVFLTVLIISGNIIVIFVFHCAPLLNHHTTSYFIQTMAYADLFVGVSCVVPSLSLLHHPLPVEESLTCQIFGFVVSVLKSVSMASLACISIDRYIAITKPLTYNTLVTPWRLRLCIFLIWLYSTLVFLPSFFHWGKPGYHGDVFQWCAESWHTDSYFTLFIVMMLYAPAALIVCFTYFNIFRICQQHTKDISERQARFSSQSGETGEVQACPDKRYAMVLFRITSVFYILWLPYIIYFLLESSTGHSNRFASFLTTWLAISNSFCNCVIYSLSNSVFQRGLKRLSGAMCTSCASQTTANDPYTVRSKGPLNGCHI

348 GPCRs [3] = target: T3, 348 GPCRs (Homo sapiens, UniProt Q9BZJ7)
T3 construct: expressed in transfected cells; host or cells: HEK293A
T3 sequence (Q9BZJ7 whole entry): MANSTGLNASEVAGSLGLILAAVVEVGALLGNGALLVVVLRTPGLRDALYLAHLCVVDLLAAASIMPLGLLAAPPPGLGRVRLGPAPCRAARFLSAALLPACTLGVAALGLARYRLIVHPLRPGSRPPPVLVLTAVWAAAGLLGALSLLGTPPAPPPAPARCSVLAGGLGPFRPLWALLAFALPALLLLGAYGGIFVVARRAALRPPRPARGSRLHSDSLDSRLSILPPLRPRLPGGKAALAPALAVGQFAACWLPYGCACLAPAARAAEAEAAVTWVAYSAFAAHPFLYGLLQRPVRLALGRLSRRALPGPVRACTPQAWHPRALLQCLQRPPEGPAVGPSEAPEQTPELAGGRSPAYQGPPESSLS

348 GPCRs [4] = target: T4, 348 GPCRs (Homo sapiens, UniProt Q13639); conditions: 10µM, Favipiravir 100μM
T4 construct: expressed in transfected cells; host or cells: HEK293A
T4 sequence (Q13639 whole entry): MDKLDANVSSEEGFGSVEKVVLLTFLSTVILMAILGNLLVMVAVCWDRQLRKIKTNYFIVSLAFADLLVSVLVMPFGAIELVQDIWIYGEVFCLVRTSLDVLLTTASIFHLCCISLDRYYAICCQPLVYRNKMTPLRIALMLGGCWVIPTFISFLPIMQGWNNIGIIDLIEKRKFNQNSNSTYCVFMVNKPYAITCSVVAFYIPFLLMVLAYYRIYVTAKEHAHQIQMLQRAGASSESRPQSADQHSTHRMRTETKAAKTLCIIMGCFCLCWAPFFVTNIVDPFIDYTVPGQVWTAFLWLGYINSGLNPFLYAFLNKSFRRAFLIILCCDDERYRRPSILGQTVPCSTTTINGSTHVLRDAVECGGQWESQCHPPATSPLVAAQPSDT

348 GPCRs [5] = target: T5, 348 GPCRs (Homo sapiens, UniProt Q9H3N8); conditions: 10µM, Favipiravir 100μM
T5 construct: expressed in transfected cells; host or cells: HEK293A

348 GPCRs [6] = target: T6, 348 GPCRs (Homo sapiens, UniProt Q16602); conditions: 10µM, Favipiravir 100μM
T6 construct: expressed in transfected cells; host or cells: HEK293A
T6 sequence (Q16602 23-461): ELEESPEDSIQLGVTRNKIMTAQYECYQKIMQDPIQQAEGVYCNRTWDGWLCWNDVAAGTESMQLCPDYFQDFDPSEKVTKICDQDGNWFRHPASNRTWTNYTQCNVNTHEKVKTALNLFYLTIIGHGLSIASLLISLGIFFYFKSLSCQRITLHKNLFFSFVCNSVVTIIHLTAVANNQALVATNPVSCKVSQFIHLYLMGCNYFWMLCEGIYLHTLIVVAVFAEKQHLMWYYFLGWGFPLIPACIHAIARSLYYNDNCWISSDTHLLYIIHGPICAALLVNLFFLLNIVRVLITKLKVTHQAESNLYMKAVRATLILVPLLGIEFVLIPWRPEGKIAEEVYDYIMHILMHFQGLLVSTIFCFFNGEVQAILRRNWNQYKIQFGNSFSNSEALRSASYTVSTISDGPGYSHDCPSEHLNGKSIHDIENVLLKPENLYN

348 GPCRs [7] = target: T7, 348 GPCRs (Homo sapiens, UniProt P28335); conditions: 10µM, Favipiravir 100μM
T7 sequence (P28335 33-458): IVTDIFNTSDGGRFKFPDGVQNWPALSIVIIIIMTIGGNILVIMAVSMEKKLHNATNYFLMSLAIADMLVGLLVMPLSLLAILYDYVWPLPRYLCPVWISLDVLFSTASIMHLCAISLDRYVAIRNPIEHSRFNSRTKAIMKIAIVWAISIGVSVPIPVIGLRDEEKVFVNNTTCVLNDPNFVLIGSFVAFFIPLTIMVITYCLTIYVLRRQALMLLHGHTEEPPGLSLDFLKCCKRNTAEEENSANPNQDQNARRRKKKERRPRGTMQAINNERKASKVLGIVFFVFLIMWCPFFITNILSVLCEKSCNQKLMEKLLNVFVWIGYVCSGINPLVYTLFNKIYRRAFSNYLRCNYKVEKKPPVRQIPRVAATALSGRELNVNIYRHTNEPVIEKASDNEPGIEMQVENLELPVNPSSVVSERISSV

348 GPCRs [8] = target: T8, 348 GPCRs (Homo sapiens, UniProt Q86SQ6)
T8 construct: expressed in transfected cells; host or cells: HEK293A
T8 sequence (Q86SQ6 1-560): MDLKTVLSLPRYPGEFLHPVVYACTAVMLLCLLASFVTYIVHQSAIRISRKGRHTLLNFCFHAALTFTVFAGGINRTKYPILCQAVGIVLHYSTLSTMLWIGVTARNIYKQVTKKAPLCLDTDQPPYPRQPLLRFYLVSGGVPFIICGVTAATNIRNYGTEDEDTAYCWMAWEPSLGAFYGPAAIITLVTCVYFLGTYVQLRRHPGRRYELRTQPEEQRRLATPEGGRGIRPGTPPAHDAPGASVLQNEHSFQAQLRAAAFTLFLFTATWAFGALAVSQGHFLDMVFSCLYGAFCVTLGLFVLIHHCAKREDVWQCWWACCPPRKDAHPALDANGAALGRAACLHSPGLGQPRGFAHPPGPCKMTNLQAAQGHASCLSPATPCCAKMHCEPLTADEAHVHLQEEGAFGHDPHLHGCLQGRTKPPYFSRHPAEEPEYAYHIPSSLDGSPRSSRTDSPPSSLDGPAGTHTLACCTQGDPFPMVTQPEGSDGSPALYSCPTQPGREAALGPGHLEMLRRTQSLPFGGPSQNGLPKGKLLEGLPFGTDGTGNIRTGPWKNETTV

348 GPCRs [9] = target: T9, 348 GPCRs (Homo sapiens, UniProt P46089); conditions: 10µM, Favipiravir 100μM
T9 construct: expressed in transfected cells; host or cells: HEK293A
T9 sequence (P46089 whole entry): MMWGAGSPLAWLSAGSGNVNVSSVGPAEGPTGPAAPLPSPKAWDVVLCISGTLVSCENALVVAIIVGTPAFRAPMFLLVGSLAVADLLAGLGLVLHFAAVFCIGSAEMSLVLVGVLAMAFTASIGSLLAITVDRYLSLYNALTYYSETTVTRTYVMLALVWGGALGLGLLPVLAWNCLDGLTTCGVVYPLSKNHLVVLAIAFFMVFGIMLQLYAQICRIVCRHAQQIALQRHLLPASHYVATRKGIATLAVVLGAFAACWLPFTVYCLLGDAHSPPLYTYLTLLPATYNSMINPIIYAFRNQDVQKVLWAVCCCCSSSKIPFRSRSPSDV

348 GPCRs [10] = target: T10, 348 GPCRs (Homo sapiens, UniProt Q99788); conditions: GPCR CMKLR1 (chemerin chemokine-like receptor 1)
T10 construct: expressed in transfected cells; host or cells: HEK293A
T10 sequence (Q99788 1-373): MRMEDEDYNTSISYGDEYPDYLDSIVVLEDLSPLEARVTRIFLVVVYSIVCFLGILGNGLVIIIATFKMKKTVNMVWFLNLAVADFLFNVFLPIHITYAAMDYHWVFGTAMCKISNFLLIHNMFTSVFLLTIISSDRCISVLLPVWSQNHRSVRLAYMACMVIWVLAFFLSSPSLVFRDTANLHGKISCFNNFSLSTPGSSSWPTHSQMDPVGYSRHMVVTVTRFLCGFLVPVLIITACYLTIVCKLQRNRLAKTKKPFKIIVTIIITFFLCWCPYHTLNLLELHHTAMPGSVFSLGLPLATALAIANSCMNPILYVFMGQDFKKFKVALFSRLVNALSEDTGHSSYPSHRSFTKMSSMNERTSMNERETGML

[11] = GLP2R (glucagon like peptide 2 receptor), read-out: % GPCR activation compared to TPA
[12] = GPR21 (G Protein-Coupled Receptor 21), read-out: % GPCR activation compared to TPA
[13] = GPCR GPR62 (G protein-coupled receptor 62), read-out: % GPCR activation compared to TPA
[14] = HTR4 (5-hydroxytryptamine (serotonin) receptor 4), read-out: % GPCR activation compared to TPA
[15] = H4 (histamine receptor H4), read-out: % GPCR activation compared to TPA
[16] = CALCRL (calcitonin receptor-like receptor), read-out: % GPCR activation compared to TPA
[17] = 5-HT2C (5-hydroxytryptamine receptor 2C), read-out: % GPCR activation compared to TPA
[18] = GPCR GPR123 (Adhesion G Protein-Coupled Receptor A1 (ADGRA1)), read-out: % GPCR activation compared to TPA
[19] = GPR3 (G protein-coupled receptor 3), read-out: % GPCR activation compared to TPA
[20] = read-out: % GPCR activation compared to TPA, GLP2R (glucagon like peptide 2 receptor)
[21] = read-out: % GPCR activation compared to TPA, GPR21 (G Protein-Coupled Receptor 21)
[22] = read-out: % GPCR activation compared to TPA, GPCR GPR62 (G protein-coupled receptor 62)
[23] = read-out: % GPCR activation compared to TPA, HTR4 (5-hydroxytryptamine (serotonin) receptor 4)
[24] = read-out: % GPCR activation compared to TPA, H4 (histamine receptor H4)
[25] = read-out: % GPCR activation compared to TPA, CALCRL (calcitonin receptor-like receptor)
[26] = read-out: % GPCR activation compared to TPA, 5-HT2C (5-hydroxytryptamine receptor 2C)
[27] = read-out: % GPCR activation compared to TPA, GPCR GPR123 (Adhesion G Protein-Coupled Receptor A1 (ADGRA1))
[28] = read-out: % GPCR activation compared to TPA, GPR3 (G protein-coupled receptor 3)

activation at 10 µM (348 GPCRs [1]; [11]) [%] | activation at 100 µM (348 GPCRs [2]; [12]) [%] | activation at 10 µM (348 GPCRs [3]; [13]) [%] | activation at 100 µM (348 GPCRs [4]; [14]) [%] | activation at 100 µM (348 GPCRs [5]; [15]) [%] | activation at 100 µM (348 GPCRs [6]; [16]) [%] | activation at 100 µM (348 GPCRs [7]; [17]) [%] | activation at 10 µM (348 GPCRs [8]; [18]) [%] | activation at 100 µM (348 GPCRs [9]; [19]) [%] | Compound | % GPCR activation compared to TPA (348 GPCRs [10]; 10µM) [%] | activation at 10 µM (348 GPCRs [1]; [20]) [%] | activation at 100 µM (348 GPCRs [2]; [21]) [%] | activation at 10 µM (348 GPCRs [3]; [22]) [%] | activation at 100 µM (348 GPCRs [4]; [23]) [%] | activation at 100 µM (348 GPCRs [5]; [24]) [%] | activation at 100 µM (348 GPCRs [6]; [25]) [%] | activation at 100 µM (348 GPCRs [7]; [26]) [%] | activation at 10 µM (348 GPCRs [8]; [27]) [%] | activation at 100 µM (348 GPCRs [9]; [28]) [%] | also measured
1.04 | 0.0472 | -0.286 | -1.56 | 5.54 | 0.376 | 0.017 | 0.375 | 7.48 | N#C[C@@]1(c2ccc3c(N)ncnn23)O[C@H](CO)[C@@H](O)[C@H]1O [GS441524] | -4.934 |  |  |  |  |  |  |  |  |  | 
0.598 | 0.1 | -0.851 | -3.37 | -3.71 | -2.18 | -2.97 | -2.47 | -0.728 | CC(C)C(=O)OC[C@H]1O[C@@H](n2ccc(NO)nc2=O)[C@H](O)[C@@H]1O [molnupiravir] | -0.3127 |  |  |  |  |  |  |  |  |  | 

More lines, now with the values behind:

Compound | activation at 10 µM (348 GPCRs [1]; [11]) [%] | activation at 100 µM (348 GPCRs [2]; [12]) [%] | activation at 10 µM (348 GPCRs [3]; [13]) [%] | activation at 100 µM (348 GPCRs [4]; [14]) [%] | activation at 100 µM (348 GPCRs [5]; [15]) [%] | activation at 100 µM (348 GPCRs [6]; [16]) [%] | activation at 100 µM (348 GPCRs [7]; [17]) [%] | activation at 10 µM (348 GPCRs [8]; [18]) [%] | activation at 100 µM (348 GPCRs [9]; [19]) [%] | % GPCR activation compared to TPA (348 GPCRs [10]; 10µM) [%] | activation at 10 µM (348 GPCRs [1]; [20]) [%] | activation at 100 µM (348 GPCRs [2]; [21]) [%] | activation at 10 µM (348 GPCRs [3]; [22]) [%] | activation at 100 µM (348 GPCRs [4]; [23]) [%] | activation at 100 µM (348 GPCRs [5]; [24]) [%] | activation at 100 µM (348 GPCRs [6]; [25]) [%] | activation at 100 µM (348 GPCRs [7]; [26]) [%] | activation at 10 µM (348 GPCRs [8]; [27]) [%] | activation at 100 µM (348 GPCRs [9]; [28]) [%] | also measured
CCC(CC)COC(=O)[C@H](C)N[P@](=O)(OC[C@H]1O[C@@](C#N)(c2ccc3c(N)ncnn23)[C@H](O)[C@@H]1O)Oc1ccccc1 [remdesivir] |  |  |  |  |  |  |  |  |  | -1.376 | 1.76 | -0.776 | 0.871 | -2.24 | 7.16 | 4.11 | -0.0017 | -0.903 | 9.85 | 
CC(C)OC(=O)[C@H](C)N[P@](=O)(OC[C@H]1O[C@@H](n2ccc(=O)[nH]c2=O)[C@](C)(F)[C@@H]1O)Oc1ccccc1 [sofosbuvir] |  |  |  |  |  |  |  |  |  | -0.9389 | -0.662 | 0.161 | 1.52 | -4.08 | -3.28 | -3.04 | -0.973 | 0.445 | -0.512 | 
NC(=O)c1nc(F)cnc1O [favipiravir, 6-fluoro-3-hydroxy-2-pyrazinecarboxamide] | 2.97 | -0.0313 |  | -3.64 | 1.77 | -7.08 | 3.15 |  | 3.58 |  |  |  |  |  |  |  |  |  |  | activation at 100 µM (348 GPCRs [3]; GPCR GPR62 (G protein-coupled receptor 62), 100μM, read-out: % GPCR activation compared to TPA): -1.63%; activation at 100 µM (348 GPCRs [8]; GPCR GPR123 (Adhesion G Protein-Coupled Receptor A1 (ADGRA1)), 100μM, read-out: % GPCR activation compared to TPA): -1.45%; % GPCR activation compared to TPA (348 GPCRs [10]; 100μM): 2.983%

From paper PMC10175918 (Communications Biology, 2023)
